Legend:
MOLT-4 [1] = experiment: Cytotoxicity against human MOLT4 cells assessed as cell growth at 100 uM after 48 hrs by sulforhodamine B assay relative to control; format: functional; conditions: MOLT-4, 48 h, read-out: Activity
HL-60(TB) = experiment: Cytotoxicity against human HL-60(TB) cells assessed as cell growth at 10 uM after 48 hrs by sulforhodamine B assay relative to control; format: functional; conditions: HL-60, 48 h, read-out: Activity
RXF 393 = experiment: Cytotoxicity against human RXF393 cells assessed as cell growth at 10 uM after 48 hrs by sulforhodamine B assay relative to control; format: functional; conditions: RXF 393, 48 h, read-out: Activity
MDA-MB-231 [2] = experiment: Cytotoxicity against human MDA-MB-231 cells assessed as cell growth at 0.1 uM after 48 hrs by sulforhodamine B assay relative to control; format: functional; conditions: MDA-MB-231, 48 h, read-out: Activity
K562 [3] = experiment: Cytotoxicity against human K562 cells assessed as cell growth at 1 uM after 48 hrs by sulforhodamine B assay relative to control; format: functional; conditions: K562, 48 h, read-out: Activity
OVCAR-8 = experiment: Cytotoxicity against human OVCAR8 cells assessed as cell growth at 100 uM after 48 hrs by sulforhodamine B assay relative to control; format: functional; conditions: OVCAR-8, 48 h, read-out: Activity
HCC 2998 [4] = experiment: Cytotoxicity against human HCC2998 cells assessed as growth inhibition after 48 hrs by sulforhodamine B assay; format: functional; conditions: HCC 2998, 48 h
SK-MEL-5 = experiment: Cytotoxicity against human SK-MEL-5 cells assessed as cell growth at 10 uM after 48 hrs by sulforhodamine B assay relative to control; format: functional; conditions: SK-MEL-5, 48 h, read-out: Activity
OVCAR-5 = experiment: Cytotoxicity against human OVCAR5 cells assessed as cell growth at 100 uM after 48 hrs by sulforhodamine B assay relative to control; format: functional; conditions: OVCAR-5, 48 h, read-out: Activity
SK-OV-3 = experiment: Cytotoxicity against human SKOV3 cells assessed as cell growth at 1 uM after 48 hrs by sulforhodamine B assay relative to control; format: functional; conditions: SK-OV-3, 48 h, read-out: Activity
M14 [5] = experiment: Cytotoxicity against human M14 cells assessed as cell growth at 0.01 uM after 48 hrs by sulforhodamine B assay relative to control; format: functional; conditions: M14, 48 h, read-out: Activity
MOLT-4 [6] = experiment: Cytotoxicity against human MOLT4 cells assessed as cell growth at 10 uM after 48 hrs by sulforhodamine B assay relative to control; format: functional; conditions: MOLT-4, 48 h, read-out: Activity
Malme-3M = experiment: Cytotoxicity against human MALME-3M cells assessed as cell growth at 1 uM after 48 hrs by sulforhodamine B assay relative to control; format: functional; conditions: read-out: Activity
NCI-H522 = experiment: Cytotoxicity against human NCI-H522 cells assessed as cell growth at 100 uM after 48 hrs by sulforhodamine B assay relative to control; format: functional; conditions: NCI-H522, 48 h, read-out: Activity
HCC 2998 [7] = experiment: Cytotoxicity against human HCC2998 cells assessed as cell growth at 0.1 uM after 48 hrs by sulforhodamine B assay relative to control; format: functional; conditions: HCC 2998, 48 h, read-out: Activity
A549 = experiment: Cytotoxicity against human A549/ATCC cells assessed as cell growth at 10 uM after 48 hrs by sulforhodamine B assay relative to control; format: functional; conditions: A549, 48 h, read-out: Activity
SNB-19 = experiment: Cytotoxicity against human SNB19 cells assessed as cell growth at 1 uM after 48 hrs by sulforhodamine B assay relative to control; format: functional; conditions: SNB-19, 48 h, read-out: Activity
HCT-15 = experiment: Cytotoxicity against human HCT15 cells assessed as growth inhibition after 48 hrs by sulforhodamine B assay; format: functional; conditions: HCT-15, 48 h
TK-10 = experiment: Cytotoxicity against human TK10 cells assessed as cell growth at 100 uM after 48 hrs by sulforhodamine B assay relative to control; format: functional; conditions: TK-10, 48 h, read-out: Activity
M14 [8] = experiment: Cytotoxicity against human M14 cells assessed as cell growth at 100 uM after 48 hrs by sulforhodamine B assay relative to control; format: functional; conditions: M14, 48 h, read-out: Activity
NCI-H322M = experiment: Cytotoxicity against human NCI-H322M cells assessed as growth inhibition after 48 hrs by sulforhodamine B assay; format: functional
M14 [9] = experiment: Cytotoxicity against human M14 cells assessed as cell growth at 0.1 uM after 48 hrs by sulforhodamine B assay relative to control; format: functional; conditions: M14, 48 h, read-out: Activity
OVCAR-4 = experiment: Cytotoxicity against human OVCAR4 cells assessed as cell growth at 10 uM after 48 hrs by sulforhodamine B assay relative to control; format: functional; conditions: OVCAR-4, 48 h, read-out: Activity
NCI-H23 [10] = experiment: Cytotoxicity against human NCI-H23 cells assessed as cell growth at 100 uM after 48 hrs by sulforhodamine B assay relative to control; format: functional; conditions: NCI-H23, 48 h, read-out: Activity
SF-268 [11] = experiment: Cytotoxicity against human SF268 cells assessed as cell growth at 10 uM after 48 hrs by sulforhodamine B assay relative to control; format: functional; conditions: SF-268, 48 h, read-out: Activity
NCI-H23 [12] = experiment: Cytotoxicity against human NCI-H23 cells assessed as cell growth at 1 uM after 48 hrs by sulforhodamine B assay relative to control; format: functional; conditions: NCI-H23, 48 h, read-out: Activity
MDA-MB-231 [13] = experiment: Cytotoxicity against human MDA-MB-231 cells assessed as growth inhibition after 48 hrs by MTT assay; format: functional, cell-based; conditions: MDA-MB-231, 48 h
SW-620 = experiment: Cytotoxicity against human SW620 cells assessed as growth inhibition after 48 hrs by sulforhodamine B assay; format: functional; conditions: SW-620, 48 h
SF-268 [14] = experiment: Cytotoxicity against human SF268 cells assessed as cell growth at 0.1 uM after 48 hrs by sulforhodamine B assay relative to control; format: functional; conditions: SF-268, 48 h, read-out: Activity
K562 [15] = experiment: Cytotoxicity against human K562 cells assessed as cell growth at 100 uM after 48 hrs by sulforhodamine B assay relative to control; format: functional; conditions: K562, 48 h, read-out: Activity
KM12 = experiment: Cytotoxicity against human KM12 cells assessed as cell growth at 100 uM after 48 hrs by sulforhodamine B assay relative to control; format: functional; conditions: KM12, 48 h, read-out: Activity
T47D = experiment: Cytotoxicity against human T47D cells assessed as cell growth at 100 uM after 48 hrs by sulforhodamine B assay relative to control; format: functional; conditions: read-out: Activity
MDA-MB-435 = experiment: Cytotoxicity against human MDA-MB-435 cells assessed as growth inhibition after 48 hrs by sulforhodamine B assay; format: functional; conditions: MDA-MB-435, 48 h
COLO 205 = experiment: Cytotoxicity against human COLO205 cells assessed as cell growth at 0.1 uM after 48 hrs by sulforhodamine B assay relative to control; format: functional; conditions: COLO 205, 48 h, read-out: Activity
SR = experiment: Cytotoxicity against human SR cells assessed as cell growth at 1 uM after 48 hrs by sulforhodamine B assay relative to control; format: functional; conditions: read-out: Activity
786-0 = experiment: Cytotoxicity against human 786-0 cells assessed as cell growth at 100 uM after 48 hrs by sulforhodamine B assay relative to control; format: functional; conditions: 786-0, 48 h, read-out: Activity

COc1ccc(-c2cc(/C=C/C(=O)c3ccc(N)cc3)[nH]n2)cc1
growth at 100 µM (MOLT-4 [1]): -47% | growth at 10 µM (HL-60(TB)): -8% | growth at 10 µM (RXF 393): -47% | growth at 0.1 µM (MDA-MB-231 [2]): 89% | growth at 1 µM (K562 [3]): 58% | growth at 100 µM (OVCAR-8): -41% | GI50 (HCC 2998 [4]): 1.83 µM | LC50 (HCC 2998 [4]): 6.17 µM | TGI (HCC 2998 [4]): 3.36 µM | growth at 10 µM (SK-MEL-5): -3% | growth at 100 µM (OVCAR-5): -86% | growth at 1 µM (SK-OV-3): 105% | growth at 0.01 µM (M14 [5]): 102% | growth at 10 µM (MOLT-4 [6]): -2% | growth at 1 µM (Malme-3M): 87% | growth at 100 µM (NCI-H522): -75% | growth at 0.1 µM (HCC 2998 [7]): 98% | growth at 10 µM (A549): 1% | growth at 1 µM (SNB-19): 75% | GI50 (HCT-15): 1 µM | LC50 (HCT-15): 34.9 µM | TGI (HCT-15): 3.62 µM | growth at 100 µM (TK-10): -91% | growth at 100 µM (M14 [8]): -71% | GI50 (NCI-H322M): 1.84 µM | TGI (NCI-H322M): 9.27 µM | CC50 (NCI-H322M; read-out: LC50 (the source's name)): 31.6 µM | growth at 0.1 µM (M14 [9]): 103% | growth at 10 µM (OVCAR-4): -6% | growth at 100 µM (NCI-H23 [10]): -62% | growth at 10 µM (SF-268 [11]): -29% | growth at 1 µM (NCI-H23 [12]): 93% | IC50 (MDA-MB-231 [13]): 1.7 µM | GI50 (SW-620): 1.69 µM | LC50 (lethal concentration, 50% net cell kill) (SW-620): 56.2 µM | TGI (SW-620): 5.41 µM | growth at 0.1 µM (SF-268 [14]): 93% | growth at 100 µM (K562 [15]): -60% | growth at 100 µM (KM12): -78% | growth at 100 µM (T47D): -54% | GI50 (MDA-MB-435): 2.24 µM | LC50 (MDA-MB-435): 38.2 µM | TGI (MDA-MB-435): 7 µM | growth at 0.1 µM (COLO 205): 96% | growth at 1 µM (SR): 45% | growth at 100 µM (786-0): -57%

Reference: ChEMBL document CHEMBL4138123, “Design, synthesis and biological evaluation of novel pyrazolochalcones as potential modulators of PI3K/Akt/mTOR pathway and inducers of apoptosis in breast cancer cells” (Eur J Med Chem, 2017)
